# Test results: patent publication US6617354B1, “Method of stabilizing and potentiating the action of anti-angiogenic substances” (priority 2000, dated 2003)
# Key:
# E-selectin = conditions: proliferating endothelial cells; cited from earlier work
# [1] = system: subcutaneous hemangioendothelioma; conditions: mice with subcutaneous hemangioendothelioma and disseminated intravascular coagulopathy; cited from earlier work
# [2] = target: T1, alpha/beta sub-units of ATP synthase (Homo sapiens, UniProt P06576+P25705); conditions: human umbilical vein endothelial cells; cited from earlier work
# T1 construct: Using human umbilical endothelial vein endothelial cells; endogenous in cells; host or cells: human umbilical vein endothelial cells
# T1 sequence (P25705 44-553): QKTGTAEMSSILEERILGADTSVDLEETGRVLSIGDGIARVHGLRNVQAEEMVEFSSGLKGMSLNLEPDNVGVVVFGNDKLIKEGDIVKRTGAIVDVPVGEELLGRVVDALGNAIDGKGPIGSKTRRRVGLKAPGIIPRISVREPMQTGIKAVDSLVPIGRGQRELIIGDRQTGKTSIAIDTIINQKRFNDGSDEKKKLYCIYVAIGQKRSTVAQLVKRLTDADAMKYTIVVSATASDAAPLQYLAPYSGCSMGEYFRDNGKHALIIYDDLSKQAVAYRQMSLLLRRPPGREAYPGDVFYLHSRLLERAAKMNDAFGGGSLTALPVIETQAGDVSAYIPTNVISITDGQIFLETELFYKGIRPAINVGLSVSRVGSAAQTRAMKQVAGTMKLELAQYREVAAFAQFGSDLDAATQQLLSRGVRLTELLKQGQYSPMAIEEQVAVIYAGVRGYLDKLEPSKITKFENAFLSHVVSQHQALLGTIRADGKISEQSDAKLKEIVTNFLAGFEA
# T1 sequence (P06576 48-529): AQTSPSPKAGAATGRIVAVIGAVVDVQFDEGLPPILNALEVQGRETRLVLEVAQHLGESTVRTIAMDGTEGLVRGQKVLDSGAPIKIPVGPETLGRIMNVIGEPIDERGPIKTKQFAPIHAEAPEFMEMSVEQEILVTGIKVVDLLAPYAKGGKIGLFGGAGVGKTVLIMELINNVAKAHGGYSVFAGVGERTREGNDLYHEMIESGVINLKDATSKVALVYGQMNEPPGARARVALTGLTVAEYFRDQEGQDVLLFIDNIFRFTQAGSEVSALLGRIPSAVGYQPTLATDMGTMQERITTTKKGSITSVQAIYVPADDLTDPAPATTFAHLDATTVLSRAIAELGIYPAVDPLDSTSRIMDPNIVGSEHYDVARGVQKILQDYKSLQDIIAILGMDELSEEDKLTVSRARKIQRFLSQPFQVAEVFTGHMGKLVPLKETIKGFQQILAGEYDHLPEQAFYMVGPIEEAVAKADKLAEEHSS
# T1 sequence (P36542 26-298 partner): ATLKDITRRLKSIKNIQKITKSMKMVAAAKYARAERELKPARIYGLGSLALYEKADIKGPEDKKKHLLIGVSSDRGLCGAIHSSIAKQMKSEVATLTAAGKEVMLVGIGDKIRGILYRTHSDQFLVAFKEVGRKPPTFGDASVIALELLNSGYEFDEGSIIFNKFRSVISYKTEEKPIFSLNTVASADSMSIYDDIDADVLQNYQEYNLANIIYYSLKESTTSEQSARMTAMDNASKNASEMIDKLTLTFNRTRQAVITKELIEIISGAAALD
# T1 sequence (P30049 23-168 partner): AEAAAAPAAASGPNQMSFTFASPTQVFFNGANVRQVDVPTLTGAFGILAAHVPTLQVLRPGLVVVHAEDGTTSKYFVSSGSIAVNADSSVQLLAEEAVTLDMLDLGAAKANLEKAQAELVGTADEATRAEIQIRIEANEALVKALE
# T1 sequence (P56381 2-51 partner limits assumed): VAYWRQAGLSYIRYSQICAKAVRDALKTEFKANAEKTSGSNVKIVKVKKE
# tumor cells [3] = assay: PUFAs on tumor cells and normal cells in vitro; format: cell-based; conditions: for tumor cell proliferation: in vitro; for selective killing of tumor cells versus normal cells: tumor cells and normal cells in vitro
# Source text: (§1) Tumor cells are not only deficient in PUFAs but also have low rate(s) of lipid peroxidation, contain relatively large amounts of antioxidants such as vitamin E and superoxide dismutase (SOD). It is also believed that low rates of lipid peroxidation and consequent low amounts of lipid peroxides in the cells can contribute to an increase in the mitotic process which ultimately leads to an increase in cell proliferation. Thus, a deficiency of PUFAs, high amounts of antioxidants and the presence of low amounts of lipid peroxides in the tumor cells can contribute to the growth of tumor cells.
# Essential fatty acids are precursors of eicosanoids and are important structural components of cell membranes. They also provide the substrates for the generation of lipid peroxidation products which have an inhibitory action on cell proliferation. Tumor cells are known to have low delta-6-desaturase activity, an enzyme necessary for the desaturation of dietary linoleic acid (LA, 18:2, n-6) and alpha-linolenic acid (ALA, 18:3, n-3) to their respective products. […] This selective tumoricidal action of fatty acids seems to be mediated by free radicals and lipid peroxides.
# KB-chR 8-5 cells = assay: Vincristine resistant KB-8-5 tumor cells; format: cell-based
# ascitic tumor cells = assay: Ascitic tumor cells in the peritoneum of experimental animals; format: in vivo; conditions: pure fatty acid or fatty acid rich oils
# [4] = system: TNF resistant L-929 tumor cells; assay: TNF resistant L-929 tumor cells in vitro; format: cell-based; conditions: for killing of TNF resistant L-929 tumor cells: in vitro; for sensitisation of TNF-resistant L-929 cells to TNF: prior treatment with the fatty acid
# tumor cells [5] = assay: Mixed culture of normal and tumor cells; format: cell-based; conditions: normal and tumor cells grown together
# Source text: as §1
# tumor cells [6] = assay: Potentiation of anti-cancer drugs by PUFAs in tumor cells; format: cell-based; conditions: combination with the fatty acid
# skin papilloma = assay: Skin papilloma in mice; format: in vivo; conditions: pure fatty acid or fatty acid rich oils
# hepatoma = assay: Hepatoma in rats; format: in vivo; conditions: pure fatty acid or fatty acid rich oils
# [7] = system: corneal plasminogen synthesis; conditions: cornea; cited from earlier work
# tumor cells [8] = conditions: cited from earlier work
# bone marrow cells = assay: Side effects of gamma-radiation and cis-platinum to bone marrow cells of mice; format: in vivo
compound,measurement,setting,value
angiostatin®,effect on expression of E-selectin,E-selectin,4 to 5 fold
same,size of the tumor,[1],significant reduction
same,survival,[1],increased survival
same,binding to alpha/beta sub-units of ATP synthase,[2],"bound in a concentration-dependent, saturable manner"
"CCCCC/C=C\C/C=C\C/C=C\C/C=C\CCCC(=O)O [AA, arachidonic acid]",tumor cell proliferation,tumor cells [3],decrease tumor cell proliferation
same,selective killing of tumor cells versus normal cells,tumor cells [3],only tumor cells are killed
same,sensitisation of vincristine resistant KB-8-5 cells to vincristine,KB-chR 8-5 cells,made sensitive
same,growth of ascitic tumor cells in the peritoneum,ascitic tumor cells,inhibit the growth
same,killing of TNF resistant L-929 tumor cells,[4],able to kill
same,sensitisation of TNF-resistant L-929 cells to TNF,[4],rendered TNF sensitive
same,selective tumoricidal action in mixed culture,tumor cells [5],effective to some extent
same,cellular uptake of anti-cancer drugs by the tumor cells,tumor cells [6],enhance the cellular uptake
same,"cytotoxic action of doxorubicin, vincristine and cis-platinum",tumor cells [6],augmented
same,growth of skin papilloma,skin papilloma,inhibit the growth
same,formation and growth of hepatoma,hepatoma,inhibit the growth
"CCCCC/C=C\C/C=C\CCCCCCCC(=O)O [LA, linoleic acid]",selective killing of tumor cells versus normal cells,tumor cells [3],only tumor cells are killed
interleukin-6: cytokine,decrease of corneal plasminogen synthesis,[7],40%
CC\C=C/C=C/C=C/C=C\CCCCCCCC(=O)O [cis-parinaric acid],selective killing of tumor cells versus normal cells,tumor cells [3],only tumor cells are killed
"CC/C=C\C/C=C\C/C=C\C/C=C\C/C=C\C/C=C\CCC(=O)O [DHA, docosahexaenoic acid]","cytotoxic action of doxorubicin, vincristine and cis-platinum",tumor cells [6],augmented
"CC/C=C\C/C=C\C/C=C\CCCCCCCC(=O)O [ALA, alpha-linolenic acid]",selective killing of tumor cells versus normal cells,tumor cells [3],only tumor cells are killed
vitamin E,"free radical generation and lipid peroxidation generated by PUFAs like GLA, EPA and DHA",tumor cells [8],completely inhibit
"CCCCC/C=C\C/C=C\C/C=C\CCCCC(=O)O [GLA, gamma-linolenic acid]",tumor cell proliferation,tumor cells [3],decrease tumor cell proliferation
same,growth of ascitic tumor cells in the peritoneum,ascitic tumor cells,inhibit the growth
same,killing of TNF resistant L-929 tumor cells,[4],able to kill
same,side effects of gamma-radiation and cis-platinum to bone marrow cells,bone marrow cells,prevent or ameliorate the side effects
same,cellular uptake of anti-cancer drugs by the tumor cells,tumor cells [6],enhance the cellular uptake
same,"cytotoxic action of doxorubicin, vincristine and cis-platinum",tumor cells [6],augmented
same,formation and growth of hepatoma,hepatoma,inhibit the growth
"CC/C=C\C/C=C\C/C=C\C/C=C\C/C=C\CCCC(=O)O [EPA, eicosapentaenoic acid]",side effects of gamma-radiation and cis-platinum to bone marrow cells,bone marrow cells,prevent or ameliorate the side effects
same,"cytotoxic action of doxorubicin, vincristine and cis-platinum",tumor cells [6],augmented
"CCCCC/C=C\C/C=C\C/C=C\CCCCCCC(=O)O [DGLA, dihomo-GLA]",tumor cell proliferation,tumor cells [3],decrease tumor cell proliferation
same,selective killing of tumor cells versus normal cells,tumor cells [3],only tumor cells are killed
same,sensitisation of vincristine resistant KB-8-5 cells to vincristine,KB-chR 8-5 cells,made sensitive
same,growth of ascitic tumor cells in the peritoneum,ascitic tumor cells,inhibit the growth
same,killing of TNF resistant L-929 tumor cells,[4],able to kill
same,sensitisation of TNF-resistant L-929 cells to TNF,[4],rendered TNF sensitive
same,side effects of gamma-radiation and cis-platinum to bone marrow cells,bone marrow cells,prevent or ameliorate the side effects
same,cellular uptake of anti-cancer drugs by the tumor cells,tumor cells [6],enhance the cellular uptake
same,"cytotoxic action of doxorubicin, vincristine and cis-platinum",tumor cells [6],augmented
same,growth of skin papilloma,skin papilloma,inhibit the growth
same,formation and growth of hepatoma,hepatoma,inhibit the growth
